Test systems include ACHN renal; LOX IMVI melanoma; PC-3 prostate; NCI-H522 lung; HT29 colon; CAKI-1 renal; M14 melanoma; IGROV1 ovarian; TK-10 renal; SK-OV-3 ovarian.
Holding throughout (assay): growth of human tumour cells (NCI), 48 h

The values below come from PubChem BioAssay (NCI).

Each structure is given as a SMILES string.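 Step 1: Grow cells in 96-well plates. Step 2: Expose to compound for 48 hours at 5 concentrations. Step 3: Interpolate endpoints linearly; if unreached, use highest concentration. The concentration for 50% growth inhibition is given as GI50. At the TGI there is no net growth.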

Turning to `COc1cc2cc(C(=O)O)[nH]c2cc1OCc1ccccc1`, the GI50 in the assay on ACHN renal, in the assay with LOX IMVI melanoma, with PC-3 prostate, in the assay with NCI-H522 lung, in the assay with HT29 colon and with CAKI-1 renal was above 100 µM throughout. In addition, the GI50 with M14 melanoma, in the assay with IGROV1 ovarian, with TK-10 renal and in the assay on SK-OV-3 ovarian was above 100 µM in each case. In addition, the TGI in the assay on ACHN renal, with LOX IMVI melanoma, in the assay with PC-3 prostate, with NCI-H522 lung, in the assay with HT29 colon and with CAKI-1 renal was above 100 µM in each case. The TGI with M14 melanoma, in the assay with IGROV1 ovarian, with TK-10 renal and with SK-OV-3 ovarian was above 100 µM throughout.
Take `O=C1/C(=C\c2ccccc2)c2ccccc2N1Cc1ccccc1`: the TGI in the assay on ACHN renal came out at 25.1 µM; in the assay on LOX IMVI melanoma, 17 µM; in the assay with PC-3 prostate it was 15.9 µM; in the assay on NCI-H522 lung it was 22 µM; in the assay on HT29 colon, 14.4 µM; with CAKI-1 renal, 13.2 µM. Further, the TGI in the assay on M14 melanoma was 23.9 µM; in the assay on IGROV1 ovarian, 16.5 µM; with TK-10 renal, 17.4 µM; with SK-OV-3 ovarian it was 15.8 µM.
As to `Cc1cc(NC(=O)CCc2ccc(N3C(N)=NC(N)=NC3(C)C)cc2)ccc1S(=O)(=O)F`, the GI50 in the assay on ACHN renal is 26.2 µM; in the assay on LOX IMVI melanoma, 0.172 µM; in the assay with PC-3 prostate, 0.368 µM; with NCI-H522 lung, 3.66 µM; in the assay with HT29 colon it was below 0.0374 µM; with M14 melanoma it was 0.737 µM. For the same compound, the figures for the GI50 in the assay on TK-10 renal and in the assay on SK-OV-3 ovarian were 4.94 µM and 4.58 µM, respectively. Also, the TGI with ACHN renal, in the assay on LOX IMVI melanoma, with PC-3 prostate, with NCI-H522 lung, in the assay on HT29 colon and in the assay on CAKI-1 renal was above 100 µM each time. Further, the TGI with M14 melanoma, with IGROV1 ovarian, in the assay on TK-10 renal and with SK-OV-3 ovarian was above 100 µM in each case.
Turning to `C[C@]12CC[C@@H]3c4ccc(O)cc4CC[C@H]3[C@@H]1CC[C@@H]2NS(=O)(=O)c1cccc(Br)c1`, the GI50 is 2.91 µM with ACHN renal; 3.13 µM in the assay on LOX IMVI melanoma; 2.83 µM with PC-3 prostate; 2.36 µM with NCI-H522 lung; 3.76 µM in the assay with HT29 colon; 2.99 µM in the assay with CAKI-1 renal. Besides, the GI50 in the assay with M14 melanoma was 3.69 µM; in the assay on IGROV1 ovarian, 4.04 µM; in the assay with TK-10 renal, 3.43 µM; in the assay with SK-OV-3 ovarian it was 6.8 µM. Also, the TGI with ACHN renal was 8.61 µM; with LOX IMVI melanoma it was 11.6 µM; in the assay with PC-3 prostate it was 12.2 µM; in the assay on NCI-H522 lung, 11.4 µM; in the assay on HT29 colon, 12.7 µM; in the assay with CAKI-1 renal, 11 µM. Further, the TGI in the assay on M14 melanoma was determined as 13.7 µM; in the assay with IGROV1 ovarian, 16.5 µM; with TK-10 renal, 12.1 µM; with SK-OV-3 ovarian, 18.6 µM.
